Literature values as cited in patent US20040121305A1, “Generation of efficacy, toxicity and disease signatures and methods of use thereof” (priority 2002, published 2004).

Settings: known toxins to be used for toxicity signature generation; organs known to be targeted

| Molecule | Target organ/organ system |
| --- | --- |
| NC(=O)N1c2ccccc2C=Cc2ccccc21 [carbamezipine] | blood; liver; reproductive system |
| CN(Cc1cnc2nc(N)nc(N)c2n1)c1ccc(C(=O)N[C@@H](CCC(=O)O)C(=O)O)cc1 [methotrexate] | liver |
| O=c1cc(-c2ccccc2)oc2ccc3ccccc3c12 [β-naphthoflavone (BNF), β-naphthoflavone] | liver |
| CN(C)CCN(Cc1cccs1)c1ccccn1 [methapyrilene] | liver |
| Clc1cc(Cl)c(-c2cc(Cl)c(Cl)cc2Cl)cc1Cl [2,2′,4,4′,5,5′-hexachlorobiphenyl] | liver |
| CC(=O)Nc1ccc(O)cc1 [acetaminophen] | kidney |
| CC(=O)[O-].CC(=O)[O-].[Pb+2] [lead acetate (PbAc), lead acetate] | liver, kidney |
| Clc1cc2c(cc1Cl)Oc1cc(Cl)c(Cl)cc1O2 [2,3,7,8-tetrachlorodibenzo-p-dioxin] | liver |
| [AsH3] [arsenic] | liver |
| CC(=N)S [thioacetamide] | liver; kidney |
| Cc1cccc(C)c1NC(=O)C(C)N (stereo not drawn) [tocainidine] | cardiovascular system |
| Cc1nccn1CC1CCc2c(c3ccccc3n2C)C1=O (stereo not drawn) [ondansetron] | liver |
| Cc1c(C)c2c(c(C)c1O)CCC(C)(COc1ccc(CC3SC(=O)NC3=O)cc1)O2 (stereo not drawn) [troglitazone] | liver |
| CC(C)(Oc1ccc(C2CC2(Cl)Cl)cc1)C(=O)O (stereo not drawn) [ciprofibrate (cipro), ciprofibrate] | liver |
| [N]=O [nitric oxide] | respiratory system; cardiovascular |
| Cc1cn([C@H]2C[C@H](N=[N+]=[N-])[C@@H](CO)O2)c(=O)[nH]c1=O [zidovudine (AZT), zidovudine] | blood; liver |
| Cc1ccc2cc3c(ccc4ccccc43)c3c2c1CC3 [3-methylcholanthrene] | liver |
| CC[C@H](C)C(=O)O[C@H]1C[C@H](O)C=C2C=C[C@H](C)[C@H](CC[C@@H](O)C[C@@H](O)CC(=O)O)[C@H]21 [pravastatin] | cardiovascular system; liver |
| Cc1cccc(Nc2cc(Cl)nc(SCC(=O)O)n2)c1C [Wy-16,463] | liver |
| ClC(Cl)=C(Cl)C(Cl)=C(Cl)Cl [hexachloro-1,3-butediene (HCBD), hexachloro-1,3-butediene] | kidney |
| CC[C@]1(O)C[C@H]2CN(CCc3c([nH]c4ccccc34)[C@@](C(=O)OC)(c3cc4c(cc3OC)N(C=O)[C@H]3[C@@](O)(C(=O)OC)[C@H](OC(C)=O)[C@]5(CC)C=CCN6CC[C@]43[C@@H]65)C2)C1 [vincristine] | nervous system; cardiovascular system; reproductive |
| interleukin-6 (IL-6): interleukin-6, listed as a known toxin targeting the liver | liver |
| NCCBr [2-bromoethylamine (BEA), 2-bromoethylamine] | kidney |

| Molecule | Target organ/organ system |
| --- | --- |
| CCOC(=O)C(C)(C)Oc1ccc(Cl)cc1 [clofibrate] | muscle |
| COc1cc(N)c(Cl)cc1C(=O)NC1CCN(CCCOc2ccc(F)cc2)CC1OC (stereo not drawn) [propulsid] | cardiovascular system |
| corvastatin | cardiovascular system; liver |
| C[C@@H]1[C@H](O)[C@@H](C)/C=C/C=C/C=C/C=C/C=C/C=C/C=C/[C@H](O[C@@H]2O[C@H](C)[C@@H](O)[C@H](N)[C@@H]2O)C[C@@H]2O[C@](O)(C[C@@H](O)C[C@@H](O)[C@H](O)CC[C@@H](O)C[C@@H](O)CC(=O)O[C@H]1C)C[C@H](O)[C@H]2C(=O)O [amphotericin B] | blood; cardiovascular system; kidney; liver |
| CNNC [dimethylhydrazine (DMH), dimethylhydrazine] | liver |
| [F-].[Na+] [sodium fluoride (NaF), sodium fluoride] | liver |
| Cc1ccc(C)c(OCCCC(C)(C)C(=O)O)c1 [gamfibrozil] | muscle |
| Nc1nc(O)c2ncn(COC(CO)CO)c2n1 [ganciclovir] | blood; liver |
| c1ccccc1 [benzene] | blood |
| C=CCO [allyl alcohol] | liver |
| [Cd] [cadmium] | kidney; liver; nervous system; respiratory system |
| CCCC(CCC)C(=O)O [valproic acid] | reproductive system |
| [Cl][Co][Cl] [cobalt chloride] | liver |
| NNc1ccccc1 [phenylhydrazine (phenylhyrzn), phenylhydrazine] | liver |
| CC(=O)Oc1ccccc1C(=O)O [aspirin] | cardiovascular system; kidney |
| S=C=Nc1cccc2ccccc12 [α-naphthyl isothiocyanate (ANIT), α-naphthyl isothiocyanate] | liver |
| Nc1ccc(O)cc1 [4-aminophenol (PAP), 4-aminophenol] | kidney |
| NN [hydrazine] | liver |
| COc1ccc(CCN2CCC(Nc3nc4ccccc4n3Cc3ccc(F)cc3)CC2)cc1 [astemizole] | cardiovascular system |
| [Cl][Hg][Cl] [mercury(II) chloride (HgCl2), mercury(II) chloride] | kidney |
| CCN(CC)N=O [diethylntrosamine] | liver |
| CN(C)c1ncnc2c1ncn2[C@@H]1O[C@H](CO)[C@@H](N)[C@H]1O [puromycin aminonucleoside (PAN), puromycin aminonucleoside] | liver; kidney |
